Reference: patent US10501464B2, “7-oxo-6-(sulfooxy)-1,6-diazabicyclo[3.2.1]octane-2-carboxamide containing compounds and their use in treating bacterial infections” (WOCKHARDT LIMITED, priority 2015, dated 2019)
Where a name gives a salt, the structure may show the parent alone. Read-outs that look alike come from different tables or passages of the source.

Assays:
Assay in all cases: Antibacterial activity, MIC by agar dilution (CLSI)
Type in all cases: cell-based
[1] = tested on: K. pneumoniae H 525; conditions: Klebsiella pneumoniae, H525, K. pneumoniae H 525; compound tested alone; read-out: MIC
Protocol: (§1) The biological activity of representative compounds according to the invention against various bacterial strains was investigated. In a typical study, overnight grown bacterial cultures were diluted appropriately and inoculated on the agar media containing doubling dilutions of the test compounds. Observations for growth or no growth was performed after 16-20 hours of incubation at 35±2° C. in the ambient air. The overall procedure was performed as per Clinical and Laboratory Standards Institute (CLSI) recommendations, (Clinical and Laboratory Standards Institute (CLSI), Performance Standards for Antimicrobial Susceptibility Testing, 20th Informational Supplement, M07-A9, Volume 32, No. 2, 2012). Molten Mueller Hinton Agar (BD, USA) containing serial dilutions of each antibacterial agent were poured on to the plates and allowed to solidify. Appropriate suspensions from the freshly grown cultures were prepared in normal saline so that about 10^4CFU/spot of the organism was delivered on to the drug containing agar plates using automated multipoint inoculator (Mast, UK). The plates were incubated in Biochemical oxygen demand (BOD) incubator at 37° C. for 18 hours and then examined for growth.
(§2) Method for the determination of MIC: The Minimum Inhibitory Concentration (MIC) determination for the combinations was carried out in Muller Hinton Agar (MHA) (BD, USA) according to Clinical and Laboratory Standards Institute (CLSI) recommendations, (Clinical and Laboratory Standards Institute (CLSI), Performance Standards for Antimicrobial Susceptibility Testing, 20th Informational Supplement, M 100-S20, Volume 30, No. 1, 2010). In short, the test strains were adjusted to deliver about 10^4CFU per spot with a multipoint inoculator (Applied Quality Services, UK). The plates were poured with MHA containing doubling concentration range of representative compounds according to present invention. The plates were inoculated and were incubated at 35° C. for 18 hour. […] The Table 2 depicts the antibacterial activity profile of compounds according to present invention against various multidrug resistant bacterial strains.

[2] = tested on: E. coli 13353; conditions: compound tested alone
Protocol: as §1, §2

[3] = tested on: E. coli M 36; conditions: Escherichia coli, M36, E. coli M 36; compound tested alone; read-out: MIC
Protocol: as §1, §2

[4] = tested on: E. coli 13352; conditions: compound tested alone
Protocol: as §1, §2

[5] = tested on: K. pneumoniae H 522; conditions: Klebsiella pneumoniae, H522, K. pneumoniae H 522; compound tested alone; read-out: MIC
Protocol: as §1, §2

[6] = tested on: K. pneumoniae ATCC 700603; conditions: Klebsiella pneumoniae, ATCC700603, compound tested alone, read-out: MIC
Protocol: as §1, §2

[7] = tested on: P. mirabilis S 137B; conditions: Proteus mirabilis, S137B, compound tested alone, read-out: MIC
Protocol: as §1, §2

[8] = tested on: E. coli M 49; conditions: compound tested alone
Protocol: as §1, §2

[9] = tested on: K. pneumoniae H 523; conditions: Klebsiella pneumoniae, H523, K. pneumoniae H 523; compound tested alone; read-out: MIC
Protocol: as §1, §2

[10] = tested on: E. coli M 138; conditions: Escherichia coli, M138, E. coli M 138; compound tested alone; read-out: MIC
Protocol: as §1, §2

[11] = tested on: E. coli 7 MP; conditions: Escherichia coli, 7MP, compound tested alone, read-out: MIC
Protocol: as §1, §2

[12] = tested on: K. pneumoniae H 521; conditions: Klebsiella pneumoniae, H521, K. pneumoniae H 521; compound tested alone; read-out: MIC
Protocol: as §1, §2

[13] = tested on: E. coli M 50; conditions: compound tested alone
Protocol: as §1, §2

[14] = tested on: E. coli 13351; conditions: compound tested alone
Protocol: as §1, §2

[15] = Escherichia coli, 13353, E. coli 13353, read-out: MIC
[16] = Escherichia coli, 13352, E. coli 13352, read-out: MIC
[17] = Escherichia coli, M49, E. coli M 49, read-out: MIC
[18] = Escherichia coli, M50, E. coli M 50, read-out: MIC
[19] = Escherichia coli, 13351, E. coli 13351, read-out: MIC

Row | SMILES | MIC [1] [µg/mL] | MIC [2, 15] [µg/mL] | MIC [3] [µg/mL] | MIC [4, 16] [µg/mL] | MIC [5] [µg/mL] | MIC [6] [µg/mL] | MIC [7] [µg/mL] | MIC [8, 17] [µg/mL] | MIC [9] [µg/mL] | MIC [10] [µg/mL] | MIC [11] [µg/mL] | MIC [12] [µg/mL] | MIC [13, 18] [µg/mL] | MIC [14, 19] [µg/mL] | MIC ([2]; E. coli 13353) [µg/mL] | MIC ([4]; E. coli 13352) [µg/mL] | MIC ([8]; E. coli M 49) [µg/mL] | MIC ([13]; E. coli M 50) [µg/mL] | MIC ([14]; E. coli 13351) [µg/mL]
1 | O=C(NOC[C@@H]1C[C@H](n2ncnn2)CN1)[C@@H]1CC[C@@H]2CN1C(=O)N2OS(=O)(=O)O [Example 1, (2S,5R)-N-{[(2S,4S)-4-(2H-tetrazol-2-yl)pyrrolidin-2-yl]methyloxy}-7-oxo-6-(sulfooxy)-1,6-diazabicyclo[3.2.1]octane-2-carboxamide] | 4 | 2 | 1 | 4 | 4 | > 32 | > 32 | 16 | 4 | 4 | 8 | 4 | 2 | 4 | – | – | – | – | –
2 | O=C(NOC[C@H]1C[C@H](N2CCOCC2)CN1)[C@@H]1CC[C@@H]2CN1C(=O)N2OS(=O)(=O)O [Example 2, Trifluoro acetic acid salt of (2S,5R)-N-{[(2R,4S)-4-(morpholin-4-yl)pyrrolidin-2-yl]methoxy}-7-oxo-6-(sulfooxy)-1,6-diazabicyclo[3.2.1]octane-2-carboxamide] | 1 | 1 | 1 | 1 | 1 | > 32 | – | 4 | 1 | 1 | 2 | 1 | 1 | 1 | – | – | – | – | –
3 | O=C(NNC(=O)[C@@H]1CC[C@@H]2CN1C(=O)N2OS(=O)(=O)O)[C@@H]1C[C@@H](n2cccn2)CN1 [Example 3] | 4 | – | 2 | – | 4 | > 32 | > 32 | – | 4 | 2 | 8 | 4 | – | – | 1 | 1 | 4 | 1 | 1
4 | O=C(NOC[C@@H]1C[C@H](n2nccn2)CN1)[C@@H]1CC[C@@H]2CN1C(=O)N2OS(=O)(=O)O [Example 5] | 4 | 1 | 1 | 1 | 4 | > 32 | > 32 | 8 | 4 | 1 | 2 | 4 | 1 | 1 | – | – | – | – | –
5 | O=C(NOC[C@@H]1C[C@H](n2ccnn2)CN1)[C@@H]1CC[C@@H]2CN1C(=O)N2OS(=O)(=O)O [Example 6] | 2 | 1 | 1 | 2 | 2 | > 32 | > 32 | 8 | 2 | 1 | 4 | 2 | 1 | 2 | – | – | – | – | –
6 | O=C(NOC[C@H]1C[C@H](n2ccnc2)CN1)[C@@H]1CC[C@@H]2CN1C(=O)N2OS(=O)(=O)O [Example 7] | 2 | 0.5 | 0.5 | 1 | 2 | > 32 | > 32 | 4 | 2 | 1 | 2 | 2 | 1 | 1 | – | – | – | – | –
7 | O=C(NOC[C@@H]1CC(n2cccn2)CN1)[C@@H]1CC[C@@H]2CN1C(=O)N2OS(=O)(=O)O (stereo partly shown) [Example 8] | 1 | 0.5 | 0.5 | 1 | 1 | > 32 | > 32 | 4 | 1 | 1 | 2 | 1 | 1 | 1 | – | – | – | – | –
